One assay relates to C. elegans. The assay is described as follows: Life span assay on Automated Lifespan Machine (SND302, SND303). The conditions noted are these: for Mean lifespan: area under the survival curve; for Age in days at 25% mortality / Age in days at 50% mortality / Age in days at 75% mortality / Age in days at 90% mortality / Age in days at 100% mortality: SND302, SND303 25 μM, Uro A, Resveratrol 50 μM; for Effect on lifespan: in words, compared to control. The assay is classed as in vivo. How it is done: An additional life span assay using an adapted standard protocol employed and published by the C. elegans Intervention Testing Program, or CITP was employed to assess the activity of SND302 and SND303. A positive and a negative control were included in the assay. In a preliminary experiment the optimal conditions for the life span analysis was determined and the stress level induced by the compounds as well as toxicity were measured.
For the life span assay over 300 worms per conditions were used and the study was conducted by InVivoBiosystems (USA) using an Automated Lifespan Machine (ALM) with proprietary modifications to improve temperature stability and image acquisition.
To prevent chemical modification or metabolism of the test article by the food bacteria, worms were fed on a lawn of UV-killed bacteria (UV-i bacteria). An overnight culture of E. coli strain WP-2 was pelleted, washed, filtered, and irradiated. A suspension of UV-i bacteria was spotted on NGM agar containing Streptomycin to inhibit growth of contaminating bacteria. The quantity and distribution of food bacteria was calibrated to ensure adequate access to food for the duration of assay while maintaining visibility of the worms.
Test article was delivered to worms by a method compatible with and previously validated on the Automated Lifespan Machine and used by the CIT [Lucanic, et. al. Impact of genetic background and experimental reproducibility on identifying chemical compounds with robust longevity effects. Nature Communications 8 (2017)]. A 200× stock solution was freshly prepared in DMSO immediately before application. 40 μl of DMSO stock (0.5% plate volume) was applied to the plate to coat the food bacteria and then chased immediately with 160 μl water to uniformly distribute a fine precipitate across the surface of the plate. This functioned to provide reservoirs of compound in food, agar, and agar surface.
The ALM used by InVivoBiosystems is based on the Caenorhabditis elegans lifespan machine published by Stroustrup, N. et al. The Caenorhabditis elegans Lifespan Machine. N at Methods 10, 665-670 (2013), with proprietary modifications to improve temperature stability and image acquisition. The scanner unit consists of a modified EPSON V850 and images are processed and analyzed using the ALM software 7. The machine time-of-death calls are trained and validated using the “storyboarding” feature of the ALM software.
The lifespan assay was designed and performed according to published and validated methods, Amrit, F. R. G., Ratnappan, R., Keith, S. A. & Ghazi, A. The C. elegans lifespan assay toolkit. Methods 68, 465-475 (2014); Lucanic, et. al. Manual Lifespan Assay Standard Operating Procedure. Caenorhabditis Intervention Testing Program https://figshare.com/articles/7_CITP_SOP_Manual_Lifespan_Assay/9738197/1. using a modified version of the Automated Lifespan Machine. Worms were age synchronized by bleaching and eggs were plated directly onto NGM agar seeded with UV-I bacteria (Day 1, hatch). On Day 3, when the worms had reached the late L4 stage, they were transferred to dishes containing 100 μM 5-Fluorodeoxyuridine (FUdR) to suppress progeny. On day 5, the worms were washed off the dishes and 30-50 worms were plated on each scanner dish. Plates were immobilized inverted on the bed of an Automated Lifespan Machine which scanned two images per hour of the plates continuously for the next 40 days.
Time of death calls exported from the ALM software were analyzed and plotted using the Lifelines software package developed by Davidson-Pilon, (2019). lifelines: survival analysis in Python. Journal of Open Source Software, 4(40), 1317.

The subject of assay [1] is C. elegans gene expression. As to the kind of experiment: Whole transcriptome analysis (RNA-Seq) of treated worms. The assay is classed as in vivo. How it is done: To determine the mode of action for SND302 and SND303 the gene transcription in young and aged adults was analyzed by RNA-Seq (whole transcription analysis). For each condition, >300 worms were treated in parallel with the lifespan assay and maintained under identical conditions.
Differential gene expression was performed with EdgeR using […] likelihood ratio tests based on fitting linear models. The likelihood ratios were used to determine the p-values which were subsequently corrected for using the BH false discovery rate (fdr) method. Eventually, differential expressed genes were defined as genes with fdr-corrected p-value of 0.05 or lower, as well as a change in expression of at least 2-fold in a given between-group comparison. Compounds SND302 and SND303 were compared against Urolithin and Vehicle control. […] In general the transcriptomic data corroborates a differential effect for SND303 when compared to SND302 (FIGS. 1-4).
Worms for RNA-Seq were split from the same synchronized pool of worms for the lifespan with each of the three replicates being maintained and treated in parallel. More than 150 worms per replicate were harvested, cleaned by filtration, and frozen at −80° in Trizol. To extract RNA, samples were thawed, vigorously vortexed, and processed using the Direct-zol RNA Miniprep Kit (Zymo Research). All samples exceeded our threshold for RNA quantity and quality. RNA samples were submitted to Novogene Co. Ltd and subjected to more stringent QC, being tested on a Qubit for concentration and run on an agarose gel and on the Agilent […] assess RNA quality and integrity. […] The total RNA was then enriched for poly-mRNA using oligo(dT) paramagnetic beads. DNA libraries were then constructed from this input mRNA using the NEBNext Ultra™ II RNA Library Prep Kit.
These libraries were then further tested by the Qubit for concentration and the Agilent 2100 for library size distribution and quality. In order to properly pool the libraries and load them onto sequencing lanes to ensure the correct number of reads per sample, an even more precise quantification of the library was done via qPCR, and the samples were loaded onto the NovaSeq 6000 platform for a paired-end sequencing run of 150 bp for each end (PE150). The loading concentrations were designed to obtain at least 6.0 Gb (which is the number of billion bases of raw data, determined by the number of reads multiplied by the length of each read). A mean of 7.4 Gb (median 7.3 Gb) raw sequencing data was obtained across all samples, with a minimum of 6.3 Gb and a maximum of 8.5 Gb raw data. Sequencing run data quality control was performed both by Novogene and by an in-house analysis. The raw data set was analyzed for parameters such as the distribution of base quality along the length of the sequencing read, the distribution of error rate along the length of the sequencing read. Reads containing adapter sequences, with N>10% (where N means “base cannot be determined”) and with a low quality (Qscore<=5) for 50% or more of its total bases were removed.

`CC(C)NC(=O)Oc1ccc2c(c1)oc(=O)c1cc(OC(=O)NC(C)C)ccc12` [SND303]: in the assay with C. elegans (25 μM), the “Median lifespan” value is 29.0 days and the “Mean lifespan” value is 27.6 days. For the same molecule, in the assay with C. elegans, the “Age in days at 25% mortality” value was 25 days, the “Age in days at 50% mortality” value was 29.0 days, the “Age in days at 75% mortality” value worked out at 31.8 days and the “Age in days at 90% mortality” value is 33.9 days. Besides, in the assay on C. elegans, the “Age in days at 100% mortality” value came out at 39.9 days; the Effect on lifespan entry was “clear and statistically significant lifespan extension”. The Significant differentially-expressed genes in assay [1] (Day 3, compared to the controls (Vehicle and Urolithin A), 25 μM) is given as 2-3 genes. In addition, the “Expression of gene C50F7.5” value in assay [1] (Day 10) is “significantly upregulated”. Moreover, in assay [1] (Day 10, compared to vehicle), the “Most significant differentially-expressed genes” value turned out to be 7 genes. The molecule also gave a Significant differentially-expressed genes in assay [1] (Day 10, compared with the UroA control) of 3 genes.

For the molecule `O=c1oc2cc(O)ccc2c2ccc(O)cc12` [Urolithin A, reference compound], in the assay on C. elegans (50 μM), the “Median lifespan” value was 27.8 days and the “Mean lifespan” value amounted to 27.0 days. In the assay with C. elegans, the “Age in days at 25% mortality” value stood at 23.8 days, the “Age in days at 50% mortality” value is 27.8 days, the “Age in days at 75% mortality” value was determined as 30.2 days and the “Age in days at 90% mortality” value is on record as 32.3 days. In the assay with C. elegans, the “Age in days at 100% mortality” value is listed as 37.7 days and the Effect on lifespan result is given as “did not produce a significant change in lifespan”. The Differentially-expressed genes entry in assay [1] (Urolithin A compared with the vehicle control) is given as “no differentially-expressed genes”.

For the origin of these results see patent US12264142B2, “Heterocyclic compounds” (FLORATEK PHARMA SA, priority 2019, dated 2025).
